The record followed here is patent US20090246773A1, “DIAGNOSTIC COMPOSITIONS AND TREATMENT METHODS FOR CONDITIONS INVOLVING TROPHOBLAST CELL DEATH, DIFFERENTIATION, INVASION AND/OR CELL FUSION AND TURNOVER” (Mount Sinai Hospital, priority 2006, published 2009).

Residues, ends and D or L forms follow the SMILES beside them. *: point of attachment. Cbz = O=C(OCc1ccccc1)*; CH2F = FC*

Data set [1] concerns Mcl-1 Cleavage in Human Villous Explants. Kind of data set: Mcl-1 immunoblot of villous explants exposed to hypoxia-reoxygenation with caspase inhibitors. It is filed as cell-based. Particulars: for Mcl-1S amount: 100 μM inhibitor, relative to H/R and untreated tissues; for Mcl-1L cleavage induced by hypoxia-reoxygenation: human villous explants, summary statement. The method, then: Explant cultures were performed as previously described (Caniggia, 2000). Briefly, placental tissues (5-8 weeks of gestation, 15 sets) were placed in ice-cold PBS and processed within 2 hours of collection. Tissues were aseptically dissected to remove decidual tissue and fetal membranes. Small fragments of placental villi (25-45 mg wet weight) were teased apart, placed on Millicell-CM culture dish inserts (Millipore Corp., Bedford, Mass., USA) pre-coated with 0.15 mL of undiluted Matrigel (Collaborative Biomedical Products, Bedford, Mass., USA), and transferred to a 24-well culture dish. Explants were cultured in serum-free DMEM/F12 (Gibco BRL, Grand Island, N.Y., USA) supplemented with 100 μg/mL streptomycin, 100 U/mL penicillin, and incubated overnight at 37° C. in 5% CO2 in air to allow attachment. Explants were maintained in standard condition (5% CO2 in 95% air) or in an atmosphere of 3% O2/92% N2/5% CO2 for 48 hrs at 37° C. Explants from more than 10 different placentae in more than 15 separate experiments were used. A minimum of 3 explants per experimental condition was used at all times. Explants were exposed to hypoxia-reoxygenation (H/R) as previously described (Hung, 2002; Soleymanlou, 2005) in presence of 100 μM of the pan-caspase inhibitor z-VAD-fmk (BioMol, Plymouth Meeting, Pa.) or caspase-3-specific inhibitor z-DEVD-fmk (R&D Systems, Minneapolis, Minn.) both dissolved in DMSO (equivalent volume of DMSO in absence of inhibitors was used in control conditions).
Western blotting was performed as previously described (MacPhee, 2001). Fifty μg of total protein form placental tissue or cell line was subjected to 12% (wt/vol) SDS-PAGE. Membranes were probed at 4° C. overnight with a 1:1000 dilutions of primary antibodies:rabbit polyclonal Mtd antibody capable of recognizing all isoforms as previously reported (Soleymanlou, 2005); Mcl-1-specific rabbit polyclonal antibody (SC-819 clone S-19 from Santa Cruz Biotechnology, Santa Cruz, Calif.); specific cleaved caspase-3 (Asp175) (5Al) and cleaved caspase-8 (Asp374) rabbit polyclonal antibodies (Cell Signaling, Beverly, Mass.). For anti-Mtd and Mcl-1 antibodies, pre-immune serum and competing peptides were used as controls. A rabbit polyclonal antibody was generated against N-terminal amino acids (28-41) of syncytin (NM_014590) and pre-immune serum was used as control. After overnight incubation, membranes were washed with TBS/T and incubated for 60 minutes at room temperature with 1:5000 diluted horseradish peroxidase-conjugated anti-rabbit (Santa Cruz Biotechnology). Blots were exposed to chemiluminescent ECL-plus reagent (Amersham, Piscataway, N.J.). All blots were confirmed for equal protein loading at all time using ponceau staining.

Data set [2] has as its system sFlt-1 expression in first trimester placental explants. Put plainly: sFlt-1 mRNA by qRT-PCR in first trimester villous explants (HIF-1 stabilization / knockdown). It is filed as cell-based, human. Particulars: 1.0 mM DMOG, explants at 20% O2; relative level normalized to 18S; 20% O2 alone 1.0±0.03; P<0.05. The method, then:
(§1) Chorionic villous explant culture was performed as previously described (Caniggia, 2000). Briefly, placental tissues (5-8 weeks of gestation, 15 separate sets) were placed in ice-cold PBS and processed within 2 hours of collection. Tissues were aseptically dissected to remove decidual tissue and fetal membranes. Small fragments of placental villi (25-45 mg wet weight) were teased apart, placed on Millicell-CM culture dish inserts (Millipore Corp., Bedford, Mass., USA) pre-coated with 0.15 mL of undiluted Matrigel (Collaborative Biomedical Products, Bedford, Mass., USA), and transferred to a 24-well culture dish. Explants were cultured in serum-free DMEM/F12 (Gibco BRL, Grand Island, N.Y., USA) supplemented with 100 μg/mL streptomycin, 100 U/mL penicillin, and incubated overnight at 37° C. in 5% CO2 in air to allow attachment. Explants were maintained in standard condition (5% CO2 in 95% air) or in an atmosphere of 3% or 8% O2 (92% or 87% N2 and 5% CO2, respectively) for 72 hrs at 37° C. The morphological integrity and viability of villous explants and their EVT outgrowth and migration were monitored daily for up to 5 days as previously reported (Caniggia, 2000). […]
Total RNA was isolated from placental samples using a Trizol-based approach according to the manufacturer's protocol (Invitrogen, CA). […] Relative quantitation of data was performed using logarithmic curves. […]

The subject of data set [3] is villous explants. Put plainly: EVT outgrowth of villous explants. Type of data set: cell-based, human. The conditions noted are these: DMOG-treated explants vs. control explants at 20% O2. The method, then:
Chorionic villous explant culture was performed as previously described (Caniggia, 2000). Briefly, placental tissues (5-8 weeks of gestation, 15 separate sets) were placed in ice-cold PBS and processed within 2 hours of collection. Tissues were aseptically dissected to remove decidual tissue and fetal membranes. Small fragments of placental villi (25-45 mg wet weight) were teased apart, placed on Millicell-CM culture dish inserts (Millipore Corp., Bedford, Mass., USA) pre-coated with 0.15 mL of undiluted Matrigel (Collaborative Biomedical Products, Bedford, Mass., USA), and transferred to a 24-well culture dish. Explants were cultured in serum-free DMEM/F12 (Gibco BRL, Grand Island, N.Y., USA) supplemented with 100 μg/mL streptomycin, 100 U/mL penicillin, and incubated overnight at 37° C. in 5% CO2 in air to allow attachment. Explants were maintained in standard condition (5% CO2 in 95% air) or in an atmosphere of 3% or 8% O2 (92% or 87% N2 and 5% CO2, respectively) for 72 hrs at 37° C. The morphological integrity and viability of villous explants and their EVT outgrowth and migration were monitored daily for up to 5 days as previously reported (Caniggia, 2000). Explants from more than 10 different placentae in more than 15 separate experiments were used. […]

In data set [4] the test system is sFlt-1 expression in first trimester placental explants. Put plainly: sFlt-1 protein immunohistochemistry in villous explants. It is filed as cell-based, human. Particulars: DMOG added to 20% O2 explants vs. 20% O2 without DMOG; IHC. The method, then:
as §1, with “Explants were maintained in standard condition (5% CO2 in 95% air) or in an atmosphere of 3% or 8% O2 (92% or 87% N2 and 5% CO2, respectively) for 72 hrs at 37° C.” left out
Paraffin sections were mounted on glass slides, dewaxed in xylene and rehydrated in descending ethanol gradient. […] Finally, avidin biotin complex (Vector Laboratories, Burlingame, Calif.) was applied for 1 hour and staining was detected with the diamino-benzidine chromogen after 5 minutes. […]

In data set [5] the test system is villous explants. Put plainly: TUNEL assay of villous explants. It is filed as cell-based, human. Particulars: DMOG treatment or 3% O2 exposure of explants. The method, then:
An in situ cell death detection kit was purchased from Amersham Biosciences, NJ, USA. Terminal deoxynucleotidyl transferase-dUTP-nick end labelling (TUNEL) assays were performed according to instructions provided by the manufacturer. Paraffin sections of tissue were dewaxed in xylene, rehydrated in descending grades of ethanol, and finally soaked in PBS. Tissue sections were pre-treated with Proteinase K (10 μg/mL) in PBS for 10 min, washed and then incubated in 3% hydrogen peroxide in methanol for 45 minutes. After washing in PBS, the slides were preincubated with 1× One Phor All buffer in 0.1% Triton X-100 in water for 30 minutes and then incubated in TdT solution for 1.5 hour at 37° C. Samples were washed in PBS and avidin biotin complex (Vector Laboratories, Burlingame, Calif.) was applied for 1 hour. Staining was detected with the diamino-benzidine chromogen after 10 minutes. Slides were counterstained with haematoxylin, dehydrated in ascending concentrations of ethanol, and fixed with xylene.

Data set [6] concerns villous explants. Kind of data set: TGFβ treatment of villous explants: endoglin expression. Type of data set: cell-based, human. The conditions noted are these: villous explants (5-8 wks) vs. non-treated explants. The method, then: Human placental tissue from first trimester and from discordant dichorionic and monochorionic twins (n=10) and age matched normal twins (n=5) were used as physiological and pathological models of placental hypoxia. In all twins the discordancy was above 25% and absence of end diastolic velocity was documented in the growth-restricted twin. Endoglin mRNA expression was measured by quantitative PCR analysis. Protein expression was measured by Western Blot analysis using endoglin antibodies. Villous explants (5-8 wks) were used to test the effect of both oxygen and TGFβ1 and TGFβ3 on endoglin expression.

Data set [7] has as its system BeWo cells. Put plainly: TGFβ treatment of BeWo cells: phospho-Smad2/3 and sFlt-1 (Western blot, real-time PCR). Type of data set: cell-based, human. The conditions noted are these: 5 ng/mL, 24 hours. The method, then:
(§2) Early onset (25-33 wks) severe IUGR with abnormal umbilical and uterine artery Doppler and from age-matched normal control tissues were collected. First trimester villous explants and BeWo and JEG-3 choriocarcinoma cell lines were cultured in standard conditions in the presence or absence of TGFβ1 or TGFβ 3 (5 ng/mL) for 24 hours. Message levels of sFlt-1 were measured by quantitative real-time PCR using specific TaqMan primers and probe. Protein expression of sFlt-1 was measured by Western blot using a polyclonal antibody against sFlt-1. In addition, protein lysates from placental tissues, explants and cells lines were analyzed with antibodies that recognize human Smad2, Smad3, Smad7 and phospho-Smad2/3.

Data set [8] has as its system villous explants. Kind of data set: TGFβ treatment of first trimester villous explants: phospho-Smad2/3 and sFlt-1 (Western blot, real-time PCR). Particulars: 5 ng/mL, 24 hours. It is filed as cell-based, human. The method, then:
as §2

Setting [9] is: explants under H/R, 100 μM inhibitor in DMSO, immunoblot.

In the case of `COC(=O)C[C@H](NC(=O)[C@H](C)NC(=O)[C@@H](NC(=O)OCc1ccccc1)C(C)C)C(=O)CF` [z-VAD-fmk] (Cbz-Val-Ala-Asp(OMe)-CH2F), in data set [1] (setting [9]), the Mcl-1L content entry is given as “restored” and the “p29 Mcl-1 (Mcl-1c) band / formation from Mcl-1L” value is given as “abrogated”. Moreover, in data set [1] (explants under H/R), the Mcl-1S amount result is recorded as “increased”. In addition, the “Mcl-1L cleavage induced by hypoxia-reoxygenation” value in data set [1] is “prevented”.

As for `COC(=O)CC[C@H](NC(=O)[C@H](CC(=O)OC)NC(=O)OCc1ccccc1)C(=O)N[C@H](C(=O)N[C@@H](CC(=O)OC)C(=O)CF)C(C)C` [z-DEVD-fmk], the “p29 Mcl-1 (Mcl-1c) band / formation from Mcl-1L” value in data set [1] (setting [9]) is recorded as “prevented”. Further, the Mcl-1S amount entry in data set [1] (explants under H/R) is “increased”. Also, in data set [1], the “Mcl-1L cleavage induced by hypoxia-reoxygenation” value was “prevented”.

With `COC(=O)CNC(=O)C(=O)OC` [DMOG, dimethyloxalyl-glycin], the “sFlt-1 mRNA expression” value in data set [2] is 2.4±0.2. The explant outgrowth entry in data set [3] is “typical low oxygen-induced outgrowth”. For the same molecule, in data set [4], the “sFlt-1 protein expression in trophoblast layers including EVT” value was “increased”. In addition, the “apoptosis (TUNEL)” value in data set [5] was “not likely due to an increased incidence of apoptosis”.

Regarding transforming growth factor β1 [TGFβ1], in data set [6], the “expression of membrane endoglin” value is reported as “increased” and the “expression of soluble endoglin” value was “increased”. In data set [7], the phospho-Smad2 protein expression result is “increased”, the phospho-Smad3 protein expression result was “increased”, the “sFlt-1 mRNA level” value is on record as “significant increase” and the sFlt-1 protein level result is given as “significant increase”. Further, in data set [8], the phospho-Smad2 protein expression entry is on record as “increased”, the phospho-Smad3 protein expression result was “increased”, the “sFlt-1 mRNA level” value was “significant increase” and the sFlt-1 protein level result is on record as “significant increase”.

B1: transforming growth factor β3 (protein, UniProt P10600 301-412, looked up)
Transforming growth factor …: ALDTNYCFRNLEENCCVRPLYIDFRQDLGWKWVHEPKGYYANFCSGPCPYLRSADTTHSTVLGLYNTLNPEASASPCCVPQDLEPLTILYYVGRTPKVEQLSNMVVKSCKCS
notes: transforming growth factor β3 added to explant and cell cultures
For the molecule B1, in data set [6], the “expression of membrane endoglin” value was “increased” and the “expression of soluble endoglin” value is given as “increased”. In data set [7], the phospho-Smad2 protein expression entry is listed as “increased”, the phospho-Smad3 protein expression result was “increased”, the “sFlt-1 mRNA level” value is given as “significant increase” and the sFlt-1 protein level result is reported as “significant increase”. Also, in data set [8], the phospho-Smad2 protein expression entry is “increased”, the phospho-Smad3 protein expression result is recorded as “increased”, the “sFlt-1 mRNA level” value is on record as “significant increase” and the sFlt-1 protein level entry was “significant increase”.
